ChEMBL document CHEMBL1157539, “Thousands of chemical starting points for antimalarial lead identification” (Nature, 2010)

These compounds were tested on Plasmodium falciparum (assay: GSK_TCMDC: Inhibition of Plasmodium falciparum 3D7 in whole erythrocytes, using parasite LDH activity as an index of growth.). Conditions: Plasmodium falciparum, 3D7.
Type: functional, organism-based

O=C(Cn1c(CCc2cccc(F)c2F)nc(=O)c2ccccc21)N(CCCN1CCCC1)Cc1ccc(-c2ccc(C(F)(F)F)cc2)cc1 and CCOc1cc(C)ccc1C1CCN(CCCCNC(=O)c2cccc(-c3ccc(C(F)(F)F)cc3)c2)CC1 are within 1.5-fold of each other in XC50: 941 nM for the first, 937 nM for the second.

Going from c1ccc2[nH]c(-c3ccc(-c4ccc(CN5CCN(c6ccncc6)CC5)cc4)cc3)nc2c1 to NC1CCCN(Cc2ccc(-c3cccc(-c4nc5ccccc5[nH]4)c3)cc2)C1 (stereo not given), the XC50 rises from 164 nM to 721 nM (4.4-fold).

Cc1cccc(C(=O)N2CCN(Cc3cccc(NC(=O)c4ccco4)c3)CC2)c1 and CC(C)(C)c1ccc(NC(=O)c2cccc(CN3CCCN(Cc4cccc(C#N)c4)CC3)c2)cc1 are within 1.5-fold of each other in XC50: 761 nM for the first, 755 nM for the second.

N#Cc1ccc(N(CCOc2ccc(Cl)c(F)c2)Cc2ccccc2C(F)(F)F)cc1C(F)(F)F and CC(=O)Nc1ccc(OCCCCN(Cc2ccccc2OC(F)(F)F)c2ccc(C(F)(F)F)c(C#N)c2)c(Cl)c1 are within 1.5-fold of each other in XC50: 685 nM for the first, 529 nM for the second.

CC1=C(C(=O)Nc2cc3cn[nH]c3cc2F)C(c2cccc(O)c2F)CC(=O)N1 (stereo not given) and COc1cc(NC(=O)c2c(-c3c(Cl)cccc3Cl)noc2C)c(OC)cc1Cl are within 1.5-fold of each other in XC50: 629 nM for the first, 916 nM for the second.

Going from C#CCOc1ccc(N2C(N)=NC(N)=NC2(C)C)cc1 to CC1(C)N=C(N)N=C(NOCc2ccc(Cl)c(Cl)c2)N1, the XC50 rises from 65.8 nM to 228 nM (3.5-fold).

Going from COc1cc2nccc(Nc3ccc(OCc4ccc(NC(C)=O)cc4)cc3)c2cc1OC to CCOc1ccc(C(=O)Nc2nonc2-c2ccc(OC)c(OC)c2)cc1, the XC50 rises from 553 nM to 868 nM (1.6-fold).

First: CC(C)CNCc1cccc(-c2cccc(CN(CCCN3CCN(C)CC3)C(=O)CCC3CCCC3)c2)c1
Second: CC(C)CCN1CCCN(Cc2cccc(C(=O)Nc3ccc(C(C)(C)C)cc3)c2)CC1
The XC50 of the first is 1.8-fold lower: 624 nM for the first, 1100 nM for the second.

Compared with Fc1cccc(COc2ccc(Nc3ncnc4sc(C#Cc5ncc[nH]5)cc34)cc2Cl)c1, NC(=O)c1cccc(Nc2nccc(Nc3ccc(Oc4c(Cl)cccc4Cl)c(Cl)c3)n2)c1 is 6.5-fold higher in XC50: 134 nM for the first, 871 nM for the second.

N#Cc1ccc2c(c1)CCN(CCC1CCC(NC(=O)/C=C/c3nc4ccccc4s3)CC1)CC2 (stereo not given) and CC(=O)c1cccc2cc(C(=O)NC3CCC(CCN4CCc5ccc(C#N)cc5C4)CC3)[nH]c12 (stereo not given) are within 1.5-fold of each other in XC50: 829 nM for the first, 787 nM for the second.

CS(=O)(=O)CCNCc1nc(-c2ccc3c(Nc4ccc(Cl)cc4F)ccnc3c2)cs1 and Clc1ccc2c(NCCc3ccccn3)ccnc2c1 are within 1.5-fold of each other in XC50: 1080 nM for the first, 832 nM for the second.

O=C(c1ccccc1)N(Cc1ccccc1-c1ccc(CNCCc2ccccc2)cc1)C1CCN(Cc2ccccc2)CC1 and CS(=O)(=O)c1ccc(CCNCc2ccc(-c3ccc(CN(C(=O)c4ccco4)C4CCN(Cc5ccccc5)CC4)cc3)nc2)cc1 are within 1.5-fold of each other in XC50: 995 nM for the first, 884 nM for the second.

Going from O=C(NCC(CCN1CCC(c2c[nH]c3ccccc23)CC1)c1ccccc1)Nc1ccc(Cl)c(Cl)c1 (stereo not given) to O=C(NCCN1CCC(c2ccncc2)CC1)c1cccc(Nc2nccc(Nc3ccc(Oc4ccccc4)cc3)n2)c1, the XC50 falls from 833 nM to 168 nM (5-fold).

Compared with COc1cc(NC(=O)N2CCOC(CCN3CCC4(CCc5ccccc54)CC3)(c3ccc(Cl)c(Cl)c3)C2)cc(OC)c1 (stereo not given), CCOc1cc(C(=O)NC2CCN(Cc3ccccc3)CC2)ccc1-c1nc2cc(Cl)c(Cl)cc2[nH]1 is 1.7-fold lower in XC50: 819 nM for the first, 469 nM for the second.

First: CC(C)(C)C/C=C\c1ccc(C(=O)NCC2CC2)cc1
Second: CCCCNC(=O)[C@H](CC1CCCCC1)NC(=O)c1ccc(O)c(-c2ccc(Cl)c(Cl)c2)c1
The XC50 of the first is 5.2-fold higher: 850 nM for the first, 164 nM for the second.

First: COc1ccc(NC(=O)c2cn(-c3ccc(C(C)(C)C)cc3)nc2C)cc1N1CCN(C)CC1
Second: COc1cc(C(C)C)ccc1N1CCN(CCCCNC(=O)c2ccc(NC(=O)c3ccc(Cl)cc3)cc2)CC1
The XC50 of the first is 1.6-fold higher: 949 nM for the first, 576 nM for the second.

CCOc1cc(C)c(C2CCN(CCCCNC(=O)c3ccc(NC(=O)c4ccc(Cl)cc4)cc3)CC2)cc1C and O=C(/C=C/c1ccc(Cl)cc1)NCCCCCN1CCCC(C(=O)Nc2ccc(Cl)cc2)C1 (stereo not given) are within 1.5-fold of each other in XC50: 739 nM for the first, 1050 nM for the second.

Nc1c2c(nc3ccc(NC(=O)c4ccccc4)cc13)CCCC2 and Cc1cc(C(=O)Nc2ccc(-c3ccccc3)cc2)no1 are within 1.5-fold of each other in XC50: 611 nM for the first, 694 nM for the second.

CCCNC(=O)c1cncc(-c2ccc(CNC3Cc4ccccc4C3)cc2)c1 and COc1ccc(-n2nc(C)cc2C(=O)NCc2ccc(-c3c(C)noc3C)cc2)cc1 are within 1.5-fold of each other in XC50: 848 nM for the first, 980 nM for the second.

First: COc1cc(C2NCC3(CCOCC3)c3cc4c(cc32)OCCO4)cc(OC)c1OC (stereo not given)
Second: COc1cc(Br)c(NC(=O)Nc2ccc(C(F)(F)F)c(O[C@@H]3CCN(C)C3)c2)cc1OC
The XC50 of the first is 3.7-fold lower: 169 nM for the first, 626 nM for the second.

Cc1cc(N[C@@H](CC(C)C)C(=O)NCCc2ccccc2)nc(NCCc2ccc(F)cc2)n1 and COc1ccc(NC(=O)[C@H](Cc2ccccc2)Nc2cc(C)nc(NCCc3cccnc3)n2)cc1 are within 1.5-fold of each other in XC50: 771 nM for the first, 760 nM for the second.

First: Cc1ccccc1OCC(O)CN1CCC(C2CCN(CC(O)COc3ccccc3C)CC2)CC1 (stereo not given)
Second: O=C(NC1CC1)C1CCN(Cc2cc3ccccc3n2Cc2ccc(Cl)cc2)CC1
The XC50 of the first is 1.6-fold lower: 307 nM for the first, 489 nM for the second.

CCC(C)NC(=O)CN1CN(c2ccccc2)C2(CCN(C(=O)c3ccc4ccccc4c3)CC2)C1=O (stereo not given) and Cc1cc2ccccc2n1CC(=O)N1CC(C(=O)N2CCCCC2)Oc2ccccc21 (stereo not given) are within 1.5-fold of each other in XC50: 627 nM for the first, 899 nM for the second.

Cc1[nH]c(C)c(-c2ccc(OCCn3cnc(Cl)c3Cl)cc2)c(=O)c1Br and Cc1nc(C)c(-c2ccc(Br)cc2)c(O)c1Br are within 1.5-fold of each other in XC50: 853 nM for the first, 638 nM for the second.

O=C(/C=C/c1ccc(Cl)c(Cl)c1)NCCCCCN1CCCC(C(=O)Nc2ccc(F)c(Cl)c2)C1 (stereo not given) and O=C(/C=C/c1ccc(Cl)cc1)NCCCCCN1CCCN(C(=O)Nc2ccc(F)c(Cl)c2)CC1 are within 1.5-fold of each other in XC50: 903 nM for the first, 781 nM for the second.

Nc1c(Cl)cc(C(O)CNCCCCCOCCc2ccc3occc3c2)cc1Cl (stereo not given) and CC(CCCCCC(=O)Nc1ccc(CC(C)NCCc2cccc(Cl)c2)cc1)NCCc1cccc(Cl)c1 (stereo not given) are within 1.5-fold of each other in XC50: 690 nM for the first, 948 nM for the second.

Going from C#CC[C@@H](NC(N)=O)C(=O)O to CC(=O)N1N=C(c2ccc(Cl)cc2)Sc2c1nc(-c1ccccc1)n2C(C)=O, the XC50 rises from 189 nM to 493 nM (2.6-fold).

Going from CC(C)c1cn2c3c(cc(C(=O)N[C@@H](Cc4ccccc4)[C@H](O)CNC4CCCCC4)cc13)N(C)S(=O)(=O)CC2 to CCc1cccc(-n2c(=O)c3cccnc3n2CC(=O)NC2CCCC2)c1, the XC50 rises from 30 nM to 932 nM (31-fold).

CC(C)COc1ccc(Cl)cc1Cc1nc(-c2nc3ccc(N4CCN(C)CC4)nc3[nH]2)cs1 and CC(C)COc1ccc(Cl)cc1Cc1nc(-c2nc3ccc(CN4CCCC4)cc3[nH]2)co1 are within 1.5-fold of each other in XC50: 751 nM for the first, 727 nM for the second.

Going from FC(F)(F)COc1ccc2ccccc2c1CNCCCCCCNCc1c(OCC(F)(F)F)ccc2ccccc12 to O=c1cc(NCCCNCc2cccc(SC(F)(F)F)c2)[nH]c2ccccc12, the XC50 rises from 352 nM to 725 nM (2.1-fold).

Compared with COCC(C)n1c(SC(C)C(=O)Nc2cc([N+](=O)[O-])ccc2Cl)nc2ccccc2c1=O (stereo not given), CC(CN1CCN(C)CC1)C(=O)Nc1cccc(-c2cccc(-c3nc4ccccc4[nH]3)c2)c1 (stereo not given) is 4.4-fold higher in XC50: 229 nM for the first, 1010 nM for the second.

Cc1cc(Nc2ccc(O)cc2)nc2cc(O)ccc12 and Cc1cccc2nc(-c3cccc(-c4cccc(NC(=O)c5cn(C)c(=O)n5C)c4)c3)[nH]c12 are within 1.5-fold of each other in XC50: 756 nM for the first, 505 nM for the second.

Compared with O=C(Nc1ccc(C(F)(F)F)cc1)c1ccc(S(=O)(=O)NC2CCN(Cc3ccccc3)C2)cc1 (stereo not given), COc1ccccc1-c1csc(C(=O)NC2CCCCN(Cc3ccc(C(C)(C)C)cc3)C2)c1 (stereo not given) is 2.5-fold higher in XC50: 618 nM for the first, 1530 nM for the second.

First: CC(=O)Nc1cc(C(=O)Nc2ccc(C3=NCCN3)cc2)ccc1C(=O)Nc1ccc(C2=NCCN2)cc1
Second: CC(C)NCc1ccc(-c2ccc(-c3nc4cc(F)ccc4[nH]3)cc2)cc1
The XC50 of the first is 1.6-fold lower: 133 nM for the first, 213 nM for the second.

Compared with COc1ccc(C(=O)CCC(=O)N(CCSC(C)(C)C)Cc2ccc(-c3ccc(CNCCc4ccc(S(C)(=O)=O)cc4)cn3)cc2)cc1F, COc1ccc(C(=O)CCC(=O)N(Cc2ccc(-c3ccc(CNCCc4ccc(S(C)(=O)=O)cc4)cn3)cc2)Cc2ccc3c(c2)OCO3)cc1F is 1.5-fold higher in XC50: 627 nM for the first, 943 nM for the second.

Cc1nc2ccc3nc(NC(=O)c4ccno4)sc3c2s1 and CCCN1CCN(CCCNC(=O)c2cc3c(Cl)nc4ccc(C)cc4c3s2)CC1 are within 1.5-fold of each other in XC50: 656 nM for the first, 802 nM for the second.

First: CCN(CC)CCCOc1ccc(Nc2nccc(-c3c(-c4cccc(NC(=O)c5c(F)cccc5F)c4)nn4ccccc34)n2)cc1F
Second: NS(=O)(=O)c1cccc(Nc2nccc(-c3c(-c4cccc(NC(=O)c5c(F)cccc5F)c4)nn4ccccc34)n2)c1
The XC50 of the first is 5.5-fold higher: 407 nM for the first, 73.6 nM for the second.

O=C(/C=C/c1ccc(Cl)c(Cl)c1)N1CCC(CN2CCC(c3cn(CC(=O)N4CCCCC4)c4ccccc34)CC2)CC1 and CCc1c(C(=O)NC2CCC(N3CCC(c4ccccc4C)CC3)CC2)[nH]c2ccc(Br)cc12 (stereo not given) are within 1.5-fold of each other in XC50: 750 nM for the first, 928 nM for the second.

Going from CCc1c(CCNC/C=C/C=C/CNCCc2ccc(OC)c(OC)c2CC)ccc(OC)c1OC to COc1cc(Cc2cnc(N)nc2N)cc(OCCCCCC(=O)O)c1OC, the XC50 falls from 968 nM to 231 nM (4.2-fold).

Cc1cc2c(cc1C(F)(F)F)N(C(=O)Nc1cnc(OCCN(C)C)c(C(F)(F)F)c1)CC2 and COc1cccc(C(=O)C2CC2CN2CC=C(c3c[nH]c4cccc(Br)c34)CC2)c1 (stereo not given) are within 1.5-fold of each other in XC50: 966 nM for the first, 752 nM for the second.

First: O=C(Cc1cccc2ccccc12)NC1CCN(c2ccnc3cc(Cl)ccc23)C1 (stereo not given)
Second: COc1ccc2nccc(NC(=O)N3CCC(NCc4cc5ccccc5[nH]4)CC3)c2n1
The XC50 of the first is 2.2-fold lower: 248 nM for the first, 556 nM for the second.

CCOC(=O)c1ccc(N2CCN(CCCNC(=O)/C(=C/C=C/c3cc4cc(Cl)c(Cl)cc4[nH]3)OC)CC2)cc1 and O=C(Nc1cccc(F)c1)N[C@H]1CCN(CCCCCNC(=O)C2CC2c2ccc(Cl)c(Cl)c2)C1 (stereo not given in full) are within 1.5-fold of each other in XC50: 845 nM for the first, 991 nM for the second.

Going from COc1ccccc1-c1nc2c(ccc3nc(N)nc(N)c32)[nH]1 to Nc1ncc(-c2cc3ccccc3o2)c(N)n1, the XC50 rises from 176 nM to 1410 nM (8-fold).

First: CCC(CC)n1cc2c(ccc3nc(N)nc(N)c32)n1
Second: CC[C@H]1CN2CC[C@H]1C[C@@H]2[C@@H](O)c1ccnc2ccccc12
The XC50 of the first is 3.4-fold lower: 81.4 nM for the first, 279 nM for the second.

First: NC1CCCN(Cc2cccc(-c3ccc(-c4nc5cc(F)ccc5[nH]4)cc3)c2)C1 (stereo not given)
Second: O=C1C(c2ccccc2)=C(Nc2cccc(OC(F)(F)C(F)F)c2)c2ccccc21
The XC50 of the first is 3.1-fold higher: 566 nM for the first, 180 nM for the second.

CCCCCCCCn1ccc(=N)cc1 and COCCN(C(=O)Cc1cccs1)C(C(=O)NCc1ccc(OC)cc1)c1ccc(C(C)C)cc1 (stereo not given) are within 1.5-fold of each other in XC50: 840 nM for the first, 845 nM for the second.

CC1CCCN(c2ccc(NC(=O)c3cccs3)cc2[N+](=O)[O-])C1 (stereo not given) and CC(C)CCNC(=O)[C@@H]1[C@H]2C(=O)N(C3CCCCC3)C(=O)[C@H]2[C@H]2C=C[C@@H]3C(c4ccc(C(C)(C)C)cc4)=NO[C@@H]3N21 are within 1.5-fold of each other in XC50: 669 nM for the first, 788 nM for the second.

Work on Cc1ccc(/C=C2/SC(=Nc3ccccc3)NC2=O)c(C)c1 yielded an XC50 of 557 nM.
